Reference: patent US6914045B2, “Glycopeptide antibiotics” (Wyeth Holdings Corporation, priority 2001, dated 2005)
Converted amounts (≈) assume the structure as drawn. Numbered stars: 1 amine (or outer) side, 2 acyl side, 3 side chain; on linkers, the order of the positions; unused ones are H or OH. Square brackets hold non-standard residues; d marks the D form. Peptide text beside a SMILES is read from it. * marks the point of attachment. ξ: configuration not given here. X6 = N=C1NCC(CC(N[*:1])C(=O)[*:2])N1C1OC(CO)C(O)C(O)C1O; ξEnduracididine(βξ-OH,4'ξ) = N=C1NCC(C(O)C(N)C(=O)O)N1; X2 = OCC1OC(OC2C(CO)OC(*)C(O)C2O)C(O)C(O)C1O; ξPhe(βξ-Me) = CC(c1ccccc1)C(N)C(=O)O

Experiments:
Experiment in all cases: in vitro antibacterial evaluation, MIC by broth dilution
Format in all cases: cell-based
Escherichia coli = details: 18 hours at 35° C.
Method in brief: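 Following National Committee for Clinical Laboratory Standards recommendations (M7-A2), susceptibility was measured by dilution in Muller-Hinton II […]. Bacteria were seeded at 5×10^5 CFU/mL against compound concentrations from 64 down to 0.06 μg/mL.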

Staphylococcus sp. = details: broth dilution, 18 hours at 35° C.
Method in brief: (§1)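 Read-out: the lowest concentration at which the test strain fails to grow. Serial dilutions (64-0.06 μg/mL) in Muller-Hinton II […], 5×10^5 CFU/mL inoculum, NCCLS M7-A2 procedure.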

Streptococcus sp. = details: broth dilution, 18 hours at 35° C.
Method in brief: as §1

Enterococcus sp. = details: broth dilution, 18 hours at 35° C.
Method in brief: as §1

CC(c1ccccc1)C1NC(=O)CNC(=O)C(CO)NC(=O)C(CC2CNC(=N)N2C2OC(CO)C(O)C(O)C2O)NC(=O)C(C(O)C2CNC(=N)N2)NC(=O)C(Cc2ccc(OC3OC(CO)C(OC4OC(CO)C(O)C(O)C4O)C(O)C3O)cc2)NC1=O (stereo not drawn) [Example 284b, Cyclo[3-(3-hexopyranosyl-2-iminoimidazolidin-4-yl)-alanylserylglycl-β-methylphenylalanyl-O-(4-O-hexopyranosylhexopyranosyl)tyrosyl-3-(2-iminoimidazolidin-4-yl)seryl]] (cyclo(G[ξPhe(βξ-Me)]Y(X2)[ξEnduracididine(βξ-OH,4'ξ)][X6]S); configuration not given here)
MIC Escherichia coli (ATCC 25922) (Escherichia coli; Escherichia coli (ATCC 25922)): >128 µg/mL
MIC Escherichia coli (GC 4559) (Escherichia coli; Escherichia coli (GC 4559)): >128 µg/mL
MIC Escherichia coli (GC 4560) (Escherichia coli; Escherichia coli (GC 4560)): >128 µg/mL
MIC Coagulase Negative Staphylococcus (GC 4547) (Staphylococcus sp.): >128 µg/mL
MIC Coagulase Negative Staphylococcus (GC 4548) (Staphylococcus sp.): >128 µg/mL
MIC Coagulase Negative Staphylococcus (GC 4549) (Staphylococcus sp.): >128 µg/mL
MIC Coagulase Negative Staphylococcus (GC 4551) (Staphylococcus sp.): >128 µg/mL
MIC Staphylococcus aureus (ATCC 29213) (Staphylococcus sp.): >128 µg/mL
MIC Staphylococcus aureus (GC 1131) (Staphylococcus sp.): >128 µg/mL
MIC Staphylococcus aureus (GC 3051) (Staphylococcus sp.): >128 µg/mL
MIC Staphylococcus aureus (GC 3053) (Staphylococcus sp.): >128 µg/mL
MIC Staphylococcus aureus (GC 4541) (Staphylococcus sp.): >128 µg/mL
MIC Staphylococcus aureus (GC 4542) (Staphylococcus sp.): >128 µg/mL
MIC Staphylococcus aureus (GC 4544) (Staphylococcus sp.): >128 µg/mL
MIC Staphylococcus aureus (GC 4545) (Staphylococcus sp.): >128 µg/mL
MIC Staphylococcus aureus-SMITH (GC 4543) (Staphylococcus sp.): >128 µg/mL
MIC Staphylococcus haemolyticus (GC 4546) (Staphylococcus sp.): >128 µg/mL
MIC Staphylococcus aureus (ATCC 29213) (Staphylococcus sp.; strain ATCC 29213): >128 µg/mL
MIC Staphylococcus aureus (GC 1131) (Staphylococcus sp.; strain GC 1131): >128 µg/mL
MIC Staphylococcus aureus (GC 3051) (Staphylococcus sp.; strain GC 3051): >128 µg/mL
MIC Staphylococcus aureus (GC 3053) (Staphylococcus sp.; strain GC 3053): >128 µg/mL
MIC Staphylococcus aureus (GC 4541) (Staphylococcus sp.; strain GC 4541): >128 µg/mL
MIC Staphylococcus aureus (GC 4542) (Staphylococcus sp.; strain GC 4542): >128 µg/mL
MIC Staphylococcus aureus (GC 4544) (Staphylococcus sp.; strain GC 4544): >128 µg/mL
MIC Staphylococcus aureus (GC 4545) (Staphylococcus sp.; strain GC 4545): >128 µg/mL
MIC Staphylococcus haemolyticus (GC 4546) (Staphylococcus sp.; strain GC 4546): >128 µg/mL
MIC Coagulase Negative Staphylococcus (GC 4547) (Staphylococcus sp.; strain GC 4547): >128 µg/mL
MIC Coagulase Negative Staphylococcus (GC 4548) (Staphylococcus sp.; strain GC 4548): >128 µg/mL
MIC Coagulase Negative Staphylococcus (GC 4549) (Staphylococcus sp.; strain GC 4549): >128 µg/mL
MIC Coagulase Negative Staphylococcus (GC 4551) (Staphylococcus sp.; strain GC 4551): >128 µg/mL
MIC Staphylococcus aureus-SMITH (GC 4543) (Staphylococcus sp.; strain SMITH GC 4543): >128 µg/mL
MIC Streptococcus pneumoniae (ATCC 6301) (Streptococcus sp.; strain ATCC 6301): >128 µg/mL
MIC Streptococcus pneumoniae (GC 1894) (Streptococcus sp.; strain GC 1894): 128 µg/mL (≈ 100 µM)
MIC Streptococcus pyogenes (GC 4563) (Streptococcus sp.; strain GC 4563): >128 µg/mL
MIC Streptococcus agalactiae (GC 4564) (Streptococcus sp.; strain GC 4564): >128 µg/mL
MIC Streptococcus pneumoniae (GC 4565) (Streptococcus sp.; strain GC 4565): >128 µg/mL
MIC Enterococcus avium (GC 4558) (Enterococcus sp.; Enterococcus avium (GC 4558)): 128 µg/mL (≈ 100 µM)
MIC Enterococcus faecalis (ATCC 29212) (Enterococcus sp.; Enterococcus faecalis (ATCC 29212)): >128 µg/mL
MIC Enterococcus faecalis (GC 4553) (Enterococcus sp.; Enterococcus faecalis (GC 4553)): >128 µg/mL
MIC Enterococcus faecalis (GC 4554) (Enterococcus sp.; Enterococcus faecalis (GC 4554)): >128 µg/mL
MIC Enterococcus faecalis (GC 6189) (Enterococcus sp.; Enterococcus faecalis (GC 6189)): >128 µg/mL
MIC Enterococcus faecium (GC 2243) (Enterococcus sp.; Enterococcus faecium (GC 2243)): >128 µg/mL
MIC Enterococcus faecium (GC 4556) (Enterococcus sp.; Enterococcus faecium (GC 4556)): >128 µg/mL
MIC Enterococcus faecium (GC 4557) (Enterococcus sp.; Enterococcus faecium (GC 4557)): 128 µg/mL (≈ 100 µM)
MIC Enterococcus faecalis (ATCC 29212) (Enterococcus sp.; strain ATCC 29212): >128 µg/mL
MIC Enterococcus faecalis (GC 2242) (Enterococcus sp.; strain GC 2242): >128 µg/mL
MIC Enterococcus faecium (GC 2243) (Enterococcus sp.; strain GC 2243): >128 µg/mL
MIC Enterococcus faecalis (GC 2691) (Enterococcus sp.; strain GC 2691): >128 µg/mL
MIC Enterococcus faecalis (GC 3059) (Enterococcus sp.; strain GC 3059): >128 µg/mL
MIC Enterococcus faecalis (GC 4552) (Enterococcus sp.; strain GC 4552): >128 µg/mL
MIC Enterococcus faecalis (GC 4553) (Enterococcus sp.; strain GC 4553): >128 µg/mL
MIC Enterococcus faecalis (GC 4554) (Enterococcus sp.; strain GC 4554): >128 µg/mL
MIC Enterococcus faecium (GC 4556) (Enterococcus sp.; strain GC 4556): >128 µg/mL
MIC Enterococcus faecium (GC 4557) (Enterococcus sp.; strain GC 4557): 128 µg/mL (≈ 100 µM)
MIC Enterococcus avium (GC 4558) (Enterococcus sp.; strain GC 4558): 128 µg/mL (≈ 100 µM)
MIC Enterococcus faecalis (GC 6189) (Enterococcus sp.; strain GC 6189): >128 µg/mL
